The text below walks through data of patent publication US20060019972A1, “Methods of treating cancer by inhibiting histone gene expression” (California Institute of Technology, priority 2004, published 2006).

Data set [1] has as its system SW620 colon carcinoma cells. The data set can be described thus: Cell morphology change of SW620 cells (phase contrast microscopy). The settings on record: for Cell morphology change: SW620 cells, 0.5 μM. The format is cell-based, human. The procedure:
(§1) Chemotherapeutic molecules, such as DNA alkylators, topoisomerase inhibitors or histone deacetylase inhibitors, alter the morphology and growth characteristics of cancer cells in culture. […] Cells were transfected with 25-100 nM siRNA using the Silencer™ siRNA Transfection Kit (Ambion, Inc.). Cell growth and morphology change were evaluated 72 or 96 hr after transfection by counting cells in a hemocytometer, and by visually inspecting cells in a phase contrast microscope.

Data set [2] concerns SW620 colon carcinoma cells. The data set can be described thus: Growth arrest / cell counts of SW620 cells. The format is cell-based, human. The settings on record: for Growth arrest: SW620 cells, based on cell counts, 0.5 μM. The procedure:
as §1

Data set [3] has as its system histone H4c mRNA in SW620 cells. The data set can be described thus: Real-time quantitative RT-PCR of H4c mRNA. The format is cell-based, human.
Method: (§2) Quantitative real-time RT-PCR was performed using QuantiTect™ SYBR® Green RT-PCR (Qiagen) as described. […] Temperature cycling and detection of the SYBR® Green emission was performed with a Cepheid SmartCycler® system. Statistical analysis was performed on three independent quantitative RT-PCR experiments for each RNA sample.
The next data set relates to v-Myb. The data set can be described thus: qRT-PCR of v-Myb expression. The class given is cell-based. (Real-time PCR tracks product formation cycle by cycle.)
The subject of data set [4] is SW620 cells. The data set can be described thus: Nuclear structure, Hoechst staining and fluorescence microscopy. Conditions: polyamide 0.5 μM for 72 hours or siRNA transfection.
In data set [5] the test system is human histone H4c gene (radiolabeled PCR product). The class given is biochemical.
Data set [6] concerns SW620 colon carcinoma cells.
For data set [7], the system named is SW620 cells. In words: Affymetrix U133A microarray analysis of genomic transcription. The class given is cell-based, human. The settings on record: 0.5 μM, 72 hr. How it is done:
Total RNA from SW620 cells from four pooled culture wells from triplicate experiments was isolated using a Qiagen RNeasy™ Midi kit according to the manufacturer's instructions. […]. Microarray experiments were performed at the DNA Array Core Facility of The Scripps Research Institute using Affymetrix Genechip® Human Genome U133A chips. Data were analyzed using Affymetrix MicroArray® Suite (MAS 5.0) software. RMA values for probe sets were analyzed using Significance Analysis of Microarrays (SAM) 1.21 software (Stanford University).
The effects of polyamide treatment on genomic transcription were monitored by DNA microarray analysis using Affymetrix high-density U133A arrays, which contain oligonucleotides representing approximately 18,000 human genes. […]. Total RNA was isolated, converted into fluorescent cRNA and hybridized to the oligonucleotide microarrays. […]

Data set [8] concerns SW620 cells. The class given is cell-based, human. The settings on record: SW620 cells pre-treated, grown without polyamide up to two weeks.
Method: Soft agar assays were performed in 6-well culture dishes using SeaPlaque low-melting temperature agarose (Cambrex Bio Science Rocklarid, Inc.). The cell growth medium was supplemented with 20% fetal bovine serum. Cells were treated for 5 days with or without polyamide, harvested by trypsin treatment, and counted using a hemocytometer. […] Cells were gently mixed by pipetting and quickly transferred to the culture dish containing a thin layer (0.5 ml) of solidified 0.5% agarose in medium. Cultures were incubated for 1-2 weeks prior to visualization by microscopy.
Equal numbers of untreated and polyamide-treated cells were inoculated into soft agar (without polyamide), and grown for up to two weeks.
The subject of data set [9] is K562. In words: Growth inhibition. The format is cell-based, human.
The subject of data set [10] is K562. The data set can be described thus: G2/M cell cycle arrest by FACS analysis. The format is cell-based, human. On the technique in general: A flow cytometer gives signals particle by particle.
The subject of a further data set is H4c mRNA in K562. The class given is cell-based, human.
Where [11] appears, read: SW620, 25-100 nM siRNA, 72 or 96 hr.

“Also recorded” adds a separate entry of the source. Read-outs that look alike come from different tables or passages of the source.

Method for H4c mRNA in K562: as §2

On to “5′-GGGCAUUACAAAACCGGCUtt-3′ [HIST1H4C-1]”, for which, in [1] (setting [11]), the “cell morphology change after siRNA transfection” value was “caused a morphological change”. Besides, the “cell number / growth after siRNA transfection” value in data set [2] (setting [11]) was “decreased”. For the same molecule, in data set [2] (SW620, after 3 days), the “reduction in cell number relative to untreated cells” value is on record as 73 (+1-5) %. Besides, the Relative cell number in [2] (SW620, siRNA transfection, untreated = 100%) amounted to 37%. Further, the “down regulation of H4c mRNA compared to scrambled sequence siRNA” value in data set [3] (SW620, quantitative RT-PCR) is on record as ~8.6 fold. The “down regulation of H4c transcription sufficient to cause growth arrest” value in data set [3] (SW620 cells) turned out to be 2 fold. The “effect on v-Myb transcription / expression” value in the data set on v-Myb is given as “down regulated v-Myb transcription”. Moreover, the “effect on size of the cell nucleus” value in the data set with SW620 cells [4] is on record as “caused a similar enlargement of the cell nucleus”.
In the case of `Cc1cc(C)n2c1C=C1C=CC(CCCCC(=O)N[C@H](CCNC(=O)c3nc(NC(=O)CCNC(=O)c4nc(NC(=O)c5nccn5C)cn4C)cn3C)C(=O)Nc3cc(C(=O)Nc4cc(C(=O)Nc5cc(C(=O)Nc6cc(C(=O)NCCC(=O)NCCCN(C)C)n(C)c6)n(C)c5)n(C)c4)n(C)c3)=[N+]1[B-]2(F)F` [1R-bobipy], the “entry into the nucleus” value with SW620 cell line was “entered the nucleus”.
For `Cc1cc(C)n2c1C=C1C=CC(CCCCC(=O)N[C@@H](CCNC(=O)c3nc(NC(=O)CCNC(=O)c4nc(NC(=O)c5nccn5C)cn4C)cn3C)C(=O)Nc3cc(C(=O)Nc4cc(C(=O)Nc5cc(C(=O)Nc6cc(C(=O)NCCC(=O)NCCCN(C)C)n(C)c6)n(C)c5)n(C)c4)n(C)c3)=[N+]1[B-]2(F)F` [1S-bodipy], the “entry into the nucleus” value in the data set on SW620 cell line is “entered the nucleus”.
For `CN(C)CCCNC(=O)CCNC(=O)c1cc(NC(=O)c2nc(NC(=O)CCNC(=O)c3cc(NC(=O)c4cc(NC(=O)[C@@H](CCNC(=O)c5cc(NC(=O)c6nc(NC(=O)CCNC(=O)c7cc(NC(=O)c8nccn8C)cn7C)cn6C)cn5C)NC(=O)CCCc5ccc(N(CCCl)CCCl)cc5)cn4C)cn3C)cn2C)cn1C` [2-Chl, ImPy-βImPy-(R-2,4-Daba^Chl)-PyPyβImPy-βDp], the Cell morphology change result in data set [1] is “no”. In addition, the Growth arrest result in [2] is recorded as “no”.
Regarding `CN(C)CCCNC(=O)CCNC(=O)c1cc(NC(=O)c2cc(NC(=O)c3cc(NC(=O)c4cc(NC(=O)[C@@H](CCNC(=O)c5cc(NC(=O)c6cc(NC(=O)c7cc(NC(=O)c8nccn8C)cn7C)cn6C)cn5C)NC(=O)CCCc5ccc(N(CCCl)CCCl)cc5)cn4C)cn3C)cn2C)cn1C` [4-Chl], the Growth arrest result in data set [2] is listed as “cytotoxic”. The “alkylation of the H4c PCR product on either strand” value in [5] is given as “fail to significantly alkylate”. In addition, the cytotoxicity entry in data set [6] was “highly cytotoxic”.
Turning to `CN(C)CCCNC(=O)CCNC(=O)c1cc(NC(=O)c2cc(NC(=O)c3cc(NC(=O)c4cc(NC(=O)[C@@H](CCNC(=O)c5cc(NC(=O)c6nc(NC(=O)c7cc(NC(=O)c8nccn8C)cn7C)cn6C)cn5C)NC(=O)CCCc5ccc(N(CCCl)CCCl)cc5)cn4C)cn3C)cn2C)cn1C` [5-Chl], the Growth arrest result in data set [2] is listed as “cytotoxic”. In data set [5], the “alkylation of the H4c PCR product on either strand” value is “fail to significantly alkylate”. Besides, the cytotoxicity result in [6] was “highly cytotoxic”.
With `CN(C)CCCNC(=O)CCNC(=O)c1cc(NC(=O)c2cc(NC(=O)c3cc(NC(=O)c4cc(NC(=O)[C@@H](CCNC(=O)c5nc(NC(=O)c6nc(NC(=O)c7cc(NC(=O)c8nccn8C)cn7C)cn6C)cn5C)NC(=O)CCCc5ccc(N(CCCl)CCCl)cc5)cn4C)cn3C)cn2C)cn1C` [6-Chl], the Cell morphology change result in data set [1] was “abolished the morphological change and growth arrest and no”. Also, the Growth arrest result in data set [2] was “abolished the morphological change and growth arrest; also recorded: slight”.
Consider `O=C(O)CCCc1ccc(N(CCCl)CCCl)cc1` [Chl, chlorambucil, reference compound], for which the Cell morphology change result in data set [1] is reported as “without effect”. The Growth arrest result in data set [2] was “without effect”. Further, the “genes whose transcription was affected” value in the data set with SW620 cells [7] is listed as “a large number of genes”. Besides, in the data set on SW620 cells [8], the “growth in soft agar” value is recorded as “formed colonies”. For the same molecule, the cytotoxicity entry in [6] (concentrations higher than 0.5 μM) was “cytotoxic at higher concentrations”.
On to `CN(C)CCCNC(=O)CCNC(=O)c1cc(NC(=O)c2cc(NC(=O)c3cc(NC(=O)c4nc(NC(=O)C(CCNC(=O)c5cc(NC(=O)c6cc(NC(=O)c7nc(NC(=O)c8nccn8C)cn7C)cn6C)cn5C)NC(=O)CCCc5ccc(N(CCCl)CCCl)cc5)cn4C)cn3C)cn2C)cn1C` (stereo not drawn) [ImImPyPy-(R-2,4-Daba^Chl)-ImPyPyPy-β-Dp], for which the “alkylation of the H4c gene in vitro” value in [5] (sites of the form 5′-WGGWCN-3′) is recorded as “alkylate multiple sites in the H4c gene”. Further, the Growth arrest entry in the data set on K562 [9] was “causes growth and cell cycle arrest”. Further, the cell cycle arrest entry in the data set with K562 [10] is “causes growth and cell cycle arrest”. Besides, the “effect on H4c gene transcription” value with H4c mRNA in K562 is given as “down regulates H4c gene transcription”.
